Entries after “also recorded” stand apart in the source; their conditions may differ.
Tests used:
[1] = target: T1, D1 receptor (Homo sapiens, UniProt P21728); experiment: Serine phosphorylation of D1 receptor (immunoprecipitation / anti-phosphoserine immunoblot) in renal proximal tubule cells; assay type: cell-based; conditions: normotensive subjects
T1 construct: endogenous in cells; host or cells: renal proximal tubule cells in culture from normotensive and hypertensive human subjects
Experimental: Proximal tubule cells were incubated with vehicle, fenoldopam, sense, scrambled or antisense propyne/phosphorothioate oligonucleotides (5 nM) as described above. The membranes were lyzed with ice cold lysis buffer (PBS with 1% NP40, 0.5% sodium deoxycholate, 0.1% SDS, 1 mM EDTA, 1 mM EGTA, 1 mM sodium vanadate, 1 mM NaF, 1 mM PMSF, 10 μg/ml aprotinin and 10 μg/ml leupeptin). The lysates were incubated with IgG-purified anti D1 receptor antibody on ice for 1 hr and protein-A agarose for 12 hrs with rocking at 4° C. The proteins separated by SDS-polyacrylamide gel electrophoresis were electrophoretically transferred onto nitrocellulose membranes. The transblot sheets blocked with 5-10% nonfat dry milk in 10 mM Tris-HCl, pH 7.5, 150 mM NaCl, and 0.1% Tween-20 were incubated with diluted affinity-purified polyclonal anti-phosphoserine antibody (Zymed Lab, San Francisco, Calif.); Sanada, et al., supra. In some cases, the cells were labeled with ^32P and immunoprecipitated with anti D1 receptor antibody. The autoradiograms and immunoblots, visualized with ECL system (Amersham, Arlington Heights, Il) were quantified by densitometry. Sanada, et al., supra.

[2] = test system: GRK activity in renal proximal tubule cells; experiment: GRK activity (phosphorylation of rhodopsin) in extracts of renal proximal tubule cells; assay type: cell-based, human
Source text: Human kidneys were obtained as fresh surgical specimens from patients who had unilateral nephrectomy due to renal carcinoma. The patient records of the subjects were reviewed and classified into those with either normal blood pressure (n=9) or essential hypertension (n=14). Subjects with systolic blood pressures less than 140 mm Hg and diastolic blood pressures less than 90 mm Hg were considered normotensive. Subjects with systolic blood pressures equal to or greater than 140 mm Hg or diastolic blood pressures equal to or greater than 90 mm Hg and/or on antihypertensive medications were considered hypertensive. […]
GRK activity was measured according to Benovic, Methods Enzymol. […] The gels were subjected to autoradiography, and the phosphorylated rhodopsin was quantified using both densitometry and radioactive counting of the excised bands at the appropriate size. GRK activity was also measured in the presence or absence of a GRK isoform antibody.

[3] = test system: D1 receptor / adenylyl cyclase coupling in renal proximal tubule cells; experiment: cAMP accumulation in renal proximal tubule cells; assay type: cell-based, human; conditions: normotensive versus hypertensive subjects
Experimental: Cultures of renal proximal tubule cells from histologically-verified normal kidney sections (5×10^5 cells/well in 24 well plastic plates coated with 0.075% Type I collagen) were incubated at 37° C. in […] and grown in a serum-free medium consisting of a 1:1 mixture of Dulbecco's Modified Eagle's medium and Ham's F12 medium supplemented with selenium (5 ng/ml), insulin (5 μg/ml), transferrin (5 μg/ml), hydrocortisone (36 ng/ml), triiodothyronine (4 pg/ml), and epidermal growth factor (10 ng/ml). When sub-confluent (90-95%), the cells were sub-cultured (passages 6-8) for use in experimental protocols using trypsin-EDTA (0.05%, 0.02%). The culture conditions are conducive for growth of human renal proximal tubules that retain characteristics of renal proximal tubule cells, Sanada, et al., J. Invest. Med. 45:277 A (1997).
The cells were washed twice with Dulbecco's phosphate buffered saline (D-PBS), after which 1 mM 3-isobutyl-1-methyl-xanthine was added to each well. […] Then, the cells were washed twice with D-PBS and frozen at −80° C. and the cells were further lysed with 0.1N HCl. cAMP concentration was measured by radioimmunoassay. […] Protein concentration was measured with the BCA protein assay kit (Pierce Chem. Co., Rockford, Ill.). […]

[4] = test system: D1 receptor; experiment: cAMP production in CHO cells transfected with D1 receptor and GRK4γ; assay type: cell-based
Experimental: The cells were washed twice with Dulbecco's phosphate buffered saline (D-PBS), after which 1 mM 3-isobutyl-1-methyl-xanthine was added to each well. The cells were incubated at 37° C. for 30 minutes with or without drugs: dopamine and the D1-like receptor agonist, fenoldopam, the D1-like receptor antagonist, SCH23390 (Research Biochemicals International, Natick, Mass.), and forskolin (Sigma Chemical Co., St. Louis, Mo.). Then, the cells were washed twice with D-PBS and frozen at −80° C. and the cells were further lysed with 0.1N HCl. cAMP concentration was measured by radioimmunoassay. […] Protein concentration was measured with the BCA protein assay kit (Pierce Chem. Co., Rockford, Ill.).
The rat D1 (rD1) or human D1 (hD1) receptor cDNA was subcloned in the expression vector pPUR (Clontech, Palo Alto, Calif.) or pcDNA3.1/Zeo (Invitrogen, Carlsbad, Calif.), respectively, between EcoRland XbaI sites. The resulting constructs were used to stably transfect CHO cells expressing the pTet-Off regulator plasmid (Clontech, Palo Alto, Calif.) using calcium phosphate. […] GRK4γ and GRK4δcDNAs, obtained from RT/PCR of mRNA from human kidney cortex were subcloned into a pTet-Off response plasmid (pTRE-rD1 or pTRE-hD1 and pTK-Hyg mixed in a 20:1 ratio, respectively) (Clontech, Palo Alto, Calif.).
GRK4δ was used for comparison.

T1 sequence (P21728 whole entry): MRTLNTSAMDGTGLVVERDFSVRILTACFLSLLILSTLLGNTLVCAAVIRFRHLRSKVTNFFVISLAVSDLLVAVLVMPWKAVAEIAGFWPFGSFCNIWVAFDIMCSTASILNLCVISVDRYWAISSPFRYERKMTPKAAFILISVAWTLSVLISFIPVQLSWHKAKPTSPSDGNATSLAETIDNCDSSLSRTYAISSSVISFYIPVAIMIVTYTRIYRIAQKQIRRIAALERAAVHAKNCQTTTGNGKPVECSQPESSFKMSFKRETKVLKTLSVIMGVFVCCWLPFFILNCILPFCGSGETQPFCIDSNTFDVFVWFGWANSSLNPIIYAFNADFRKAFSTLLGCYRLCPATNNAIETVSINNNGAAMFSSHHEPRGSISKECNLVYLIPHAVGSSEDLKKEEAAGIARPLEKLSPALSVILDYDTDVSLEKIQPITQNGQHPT

For `Oc1ccc(C2CNCCc3c2cc(O)c(O)c3Cl)cc1` (centres unmarked) [fenoldopam], which “quantity of serine-phosphorylated D1 receptor” value [1] is on record?
Its value is “increased the quantity of serine-phosphorylated D1 receptor”.

And the “effect on GRK activity, assessed by the phosphorylation of rhodopsin” value ([2]; renal proximal tubule cells from hypertensive subjects)?
Its value is “increased GRK activity”.

What about the “effect on GRK activity, assessed by the phosphorylation of rhodopsin” value ([2]; renal proximal tubule cells from normotensive subjects) of the same compound?
The value was “had no effect on GRK activity; also recorded: failed to increase GRK activity”.

And the cAMP accumulation [3]?
The cAMP accumulation was “increased cAMP accumulation to a greater extent in renal proximal tubule cells from normotensive than from hypertensive subjects”.

What about the “selectivity of action on cAMP production” value [4] of the same compound?
The value was “selective for the D1 receptor”.

— US9074016B2, “G protein-related kinase mutants in essential hypertension” (priority 1998, dated 2015)
